Laboratory results taken from paper PMC8434109, “Synthesis and Biological Activity of a Cytostatic Inhibitor of MLLr Leukemia Targeting the DOT1L Protein” (Molecules, 2021).

What was measured:
[1] = test system: histone marks H2R2me2S, H3K4me3, H3K9me2, H4K20me2, H4K20me3, H3K9me1, H3K36me1; test: Selectivity on histone marks by fluorescence microscopy HCS; type: cell-based; conditions: 7 tested histone marks other than H3K79me2
Method: This difference in the mechanism was further confirmed by flow cytometry analysis of the impact of the compounds on the cell cycle and apoptosis.
(§1) Table S1: Selectivity of the compound on a HMT panel (by Reaction Biology, USA) and on hDNMT3Acat (as described in Ceccaldi
(§2) Enzyme % Activity (relative to DMSO
(§3) Testing Concentration 10µM
(§4) Methyltransferase: Substrate: Activity enzyme in %
EZH2 Complex Core Histone 86±1
Figure S4. Selectivity evaluation of the compound Dia-2 by fluorescence microscopy HCS. A) fluorescence imaging of the
H3K79me2 mark B) bar diagram of the percentage of inhibition for compound Dia-2.
(1 picture or pasted object on this page, not shown here)

[2] = molecular target: T1, G9a (Homo sapiens, UniProt Q96KQ7); test: HMT selectivity panel (Reaction Biology); type: biochemical; conditions: substrate Histone H3 1-21, read-out: Enzyme % Activity (relative to DMSO controls)
T1 construct: purchased Reaction Biology
T1 sequence (Q96KQ7 1-1210): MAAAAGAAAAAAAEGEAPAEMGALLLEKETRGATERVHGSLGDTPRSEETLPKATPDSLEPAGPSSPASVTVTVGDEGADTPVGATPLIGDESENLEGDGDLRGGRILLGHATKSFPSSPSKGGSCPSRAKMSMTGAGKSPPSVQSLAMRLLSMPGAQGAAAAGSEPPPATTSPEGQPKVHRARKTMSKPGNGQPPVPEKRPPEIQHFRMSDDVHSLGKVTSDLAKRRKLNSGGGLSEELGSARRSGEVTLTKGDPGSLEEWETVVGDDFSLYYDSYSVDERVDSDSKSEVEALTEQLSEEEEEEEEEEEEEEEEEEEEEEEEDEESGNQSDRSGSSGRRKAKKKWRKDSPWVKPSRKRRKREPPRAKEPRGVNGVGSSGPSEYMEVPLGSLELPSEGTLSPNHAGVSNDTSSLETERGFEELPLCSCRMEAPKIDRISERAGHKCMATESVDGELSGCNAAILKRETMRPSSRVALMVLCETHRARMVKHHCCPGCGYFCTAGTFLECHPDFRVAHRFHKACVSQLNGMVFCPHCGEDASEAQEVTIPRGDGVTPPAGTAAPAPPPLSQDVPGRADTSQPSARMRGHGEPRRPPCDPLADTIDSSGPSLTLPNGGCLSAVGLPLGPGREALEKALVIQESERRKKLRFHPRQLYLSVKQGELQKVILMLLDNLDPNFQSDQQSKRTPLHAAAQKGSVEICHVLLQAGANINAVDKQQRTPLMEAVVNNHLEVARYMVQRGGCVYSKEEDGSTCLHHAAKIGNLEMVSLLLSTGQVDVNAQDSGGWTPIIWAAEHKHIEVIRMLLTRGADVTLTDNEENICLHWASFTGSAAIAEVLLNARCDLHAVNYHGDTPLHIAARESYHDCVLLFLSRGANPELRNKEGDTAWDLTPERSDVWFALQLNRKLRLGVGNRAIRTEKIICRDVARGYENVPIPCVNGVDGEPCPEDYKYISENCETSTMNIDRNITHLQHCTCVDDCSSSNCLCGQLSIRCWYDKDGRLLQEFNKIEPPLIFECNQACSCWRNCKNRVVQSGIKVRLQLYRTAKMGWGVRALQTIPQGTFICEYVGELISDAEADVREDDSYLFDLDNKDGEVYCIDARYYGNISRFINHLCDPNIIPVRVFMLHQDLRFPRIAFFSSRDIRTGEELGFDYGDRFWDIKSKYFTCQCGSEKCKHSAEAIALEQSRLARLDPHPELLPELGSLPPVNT
Method: as §1, §2, §3, §4

[3] = molecular target: T2, PRMT4 (Homo sapiens, UniProt Q86X55); test: HMT selectivity panel (Reaction Biology); type: biochemical; conditions: substrate Histone H3, read-out: Enzyme % Activity (relative to DMSO controls)
T2 construct: purchased Reaction Biology
T2 sequence (Q86X55 1-608): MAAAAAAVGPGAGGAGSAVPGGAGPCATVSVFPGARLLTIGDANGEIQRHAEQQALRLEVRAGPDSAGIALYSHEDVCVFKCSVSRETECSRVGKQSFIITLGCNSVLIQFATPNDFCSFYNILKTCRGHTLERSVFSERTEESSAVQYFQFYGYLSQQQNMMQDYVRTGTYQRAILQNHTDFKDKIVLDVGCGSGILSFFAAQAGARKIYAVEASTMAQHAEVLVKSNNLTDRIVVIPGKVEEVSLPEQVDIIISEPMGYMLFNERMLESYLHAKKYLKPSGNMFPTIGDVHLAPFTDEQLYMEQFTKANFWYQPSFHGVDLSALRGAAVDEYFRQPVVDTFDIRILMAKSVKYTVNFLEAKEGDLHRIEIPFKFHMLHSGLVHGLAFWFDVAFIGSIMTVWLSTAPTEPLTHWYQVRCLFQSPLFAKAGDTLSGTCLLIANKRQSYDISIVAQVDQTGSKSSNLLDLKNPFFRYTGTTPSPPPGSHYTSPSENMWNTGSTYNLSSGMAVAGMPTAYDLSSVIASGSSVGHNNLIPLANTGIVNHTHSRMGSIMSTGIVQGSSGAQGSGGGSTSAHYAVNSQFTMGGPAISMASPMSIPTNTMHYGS
Method: as §1, §2, §3, §4

[4] = molecular target: T3, SMYD2 (Homo sapiens, UniProt Q9NRG4); test: HMT selectivity panel (Reaction Biology); type: biochemical; conditions: substrate Histone H4, read-out: Enzyme % Activity (relative to DMSO controls)
T3 construct: purchased Reaction Biology
Method: as §1, §2, §3, §4

[5] = molecular target: recombinant hDOT1L (Homo sapiens, UniProt Q8TEK3); test: AlphaLISA DOT1L enzymatic inhibition assay on purified nucleosomes
Sequence of recombinant hDOT1L (Q8TEK3 1-416): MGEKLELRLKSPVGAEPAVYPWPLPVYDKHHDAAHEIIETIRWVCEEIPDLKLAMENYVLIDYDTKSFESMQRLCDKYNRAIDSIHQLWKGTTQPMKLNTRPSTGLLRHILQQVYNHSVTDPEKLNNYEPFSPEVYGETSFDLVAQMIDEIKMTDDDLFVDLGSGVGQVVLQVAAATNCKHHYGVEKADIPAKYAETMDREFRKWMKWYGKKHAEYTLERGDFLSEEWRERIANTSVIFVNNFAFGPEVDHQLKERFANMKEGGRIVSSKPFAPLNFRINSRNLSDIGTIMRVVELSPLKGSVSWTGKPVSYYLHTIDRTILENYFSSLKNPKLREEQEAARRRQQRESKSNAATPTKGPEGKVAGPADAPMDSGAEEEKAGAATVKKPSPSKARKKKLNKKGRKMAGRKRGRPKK

T3 sequence (Q9NRG4 whole entry): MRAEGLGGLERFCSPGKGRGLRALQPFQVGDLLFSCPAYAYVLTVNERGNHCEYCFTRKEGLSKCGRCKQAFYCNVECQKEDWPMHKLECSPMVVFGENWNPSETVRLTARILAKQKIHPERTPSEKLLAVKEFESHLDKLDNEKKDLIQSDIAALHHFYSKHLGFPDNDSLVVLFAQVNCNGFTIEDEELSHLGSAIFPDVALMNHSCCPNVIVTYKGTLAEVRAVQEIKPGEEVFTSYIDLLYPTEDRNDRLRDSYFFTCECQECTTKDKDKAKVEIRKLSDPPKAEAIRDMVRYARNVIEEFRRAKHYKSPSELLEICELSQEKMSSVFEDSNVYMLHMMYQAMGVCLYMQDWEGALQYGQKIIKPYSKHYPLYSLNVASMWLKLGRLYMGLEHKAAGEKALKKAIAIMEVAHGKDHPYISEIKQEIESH

remaining activity at 10 µM [2]: 97 ± 1% | remaining activity at 10 µM [3]: 92 ± 1% | remaining activity at 10 µM [4]: 92 ± 1% | IC50 [5]: 4.7 nM
SMILES: CC(C)[C@H](CCCNC(=O)Nc1ccc(C(C)(C)C)cc1)N[C@H]1C[C@@H](n2cnc3c(N)ncnc32)[C@H](O)[C@@H]1O [Dia2, 1-((S)-4-(((1S,2R,3S,4R)-4-(6-amino-9H-purin-9-yl)-2,3-dihydroxycyclopentyl)amino)-5-methylhexyl)-3-(4-(tert-butyl)phenyl)urea]
effect on other histone marks in cells [1]: does not affect the other 7 tested histone marks
